For test [1], the system named is esophageal, liver and breast cancer cell lines. As to conditions: several esophageal, dose-dependent; cited from earlier work.
In test [2] the target is T1, SMYD3 (Homo sapiens (Human), UniProt Q9H7B4). Kind of test: SMYD3 biochemical assay (SMYD3 enzyme assay on MEKK2 protein substrate, 3H-SAM scintillation proximity assay). As to conditions: Table 3A; average of n = 1 to n = 50; read-out: SMYD3 Biochem IC50. In a few lines:
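Detection used scintillation proximity beads to capture ³H-methylated GST-MEKK2 after quench with 100 uM final cold SAM. The reaction was started by SAM/MEKK2 addition after a 30 min RT compound–enzyme preincubation. Enzyme was tag-free full-length human SMYD3 from E. coli, in buffer of 25 mM Tris-Cl pH 8.0, 1 mM TCEP, 0.005% BSG, 0.005% Tween 20.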
On the technique in general: SPA uses beads or plates that emit light when radiolabelled molecules are held near them.

Test [3] has as its target T1, SMYD3. As to the kind of experiment: SMYD3 cell assay (Trimethyl-MEKK2 In-Cell Western in 293T/17 cells transfected with MEKK2-flag and SMYD3). It is filed as cell-based. As to conditions: Table 3A; average of n = 1 to n = 50; read-out: SMYD3 cell IC50. In outline: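 Methanol-fixed cells stained in-cell Western for trimethyl-MEKK2 and anti-flag. Ratio-based % inhibition against DMSO and background controls; IC50 by non-linear regression, triplicate wells.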

T1 sequence (Q9H7B4 whole entry): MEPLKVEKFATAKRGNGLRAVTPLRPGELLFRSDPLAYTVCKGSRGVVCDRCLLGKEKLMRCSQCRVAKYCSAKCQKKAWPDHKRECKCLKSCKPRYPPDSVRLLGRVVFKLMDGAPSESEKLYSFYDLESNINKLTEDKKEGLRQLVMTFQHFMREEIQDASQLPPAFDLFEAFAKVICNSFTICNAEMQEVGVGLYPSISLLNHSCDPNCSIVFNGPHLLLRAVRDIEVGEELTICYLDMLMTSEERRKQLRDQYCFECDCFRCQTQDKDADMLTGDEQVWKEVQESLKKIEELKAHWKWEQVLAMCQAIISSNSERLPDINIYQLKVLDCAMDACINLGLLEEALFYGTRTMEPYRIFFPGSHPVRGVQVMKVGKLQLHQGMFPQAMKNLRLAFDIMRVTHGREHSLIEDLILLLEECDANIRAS

With `Cc1cn(CCN2CCN(c3ccccc3-c3cc(C#N)cc(C(=O)NCCCN4CCCC4)c3)CC2)c2ccccc12` [LLY-507], in test [1], the “proliferation of cancer cell lines” value is reported as “inhibited the proliferation”.
On to `O=C(N[C@H]1C[C@H]2CC[C@@H](C1)N2S(=O)(=O)[C@H]1CC[C@H](NCc2ccccc2)CC1)c1ccc2c(c1)OC(F)(F)O2` [compound 627, N-((1R,3R,5S)-8-(((1r,4R)-4-(benzylamino)cyclohexyl)sulfonyl)-8-azabicyclo[3.2.1]octan-3-yl)-2,2-difluorobenzo[d][1,3]dioxole-5-carboxamide], for which the figures for the concentration for half-maximal inhibition (IC50) in test [2] and in test [3] were 225 nM and 1540 nM, respectively.

The values are drawn from patent publication US10266526B2, “Substituted 1,2,3-triazoles as SMYD inhibitors for treating cancer” (EPIZYME, INC., priority 2014, dated 2019).
